Test results as given in patent US9861702B2, “Lipid-conjugated rhamnose for immune system recruitment and oncotherapy” (WISCONSIN ALUMNI RESEARCH FOUNDATION, priority 2012, dated 2018).
“Also recorded” adds a separate entry of the source. Like-named read-outs stand apart in the source and are kept apart here. Each block holds one compound with its values, some of them ahead of it.

Experiments:
M21 cells [1] = test: Fluorescent lipid insertion levels, quantitative flow cytometry with calibration beads; format: cell-based
Source text: FIG. 5 is a graph showing the results of flow cytometry measurements to assess the levels of insertion of fluorescent lipid conjugates into M21 cells. See Example 4 and Scheme 6 for details. Under the treatment conditions used, insertion levels of approximately 3×10^6 lipids per cell was achieved. All three fluorescent labeled lipids inserted robustly into the cell membrane.
To estimate lipid insertion levels into model cells, three fluorescent lipid derivatives were synthesized: 101 an Alexa-Fluor® 488 dye conjugated to cholesterol, 102 Alexa-Fluor® 488 dye (Life Technologies) conjugated to POPE and 103 an Alexa-Fluor® 488 dye conjugated to DPoPE. M21 cells were treated with these lipids and assessed by quantitative flow cytometry using calibration beads to determine the number of fluorophores per cell. The results are illustrated in FIG. 5.

M21 cells [2] = format: cell-based; details: normal donor serum, FIG. 9
Description: The requisite amount of chloroform solution containing each lipid compound was measured into a glass vial. Chloroform was removed by blowing argon into the vial until all solvent was evaporated leaving a lipid film on the glass. The lipid film was hydrated with sufficient buffer (HBSS with 1% BSA) to yield a 0.1 mM solution for 30 minutes at room temperature. The vials were then sonicated in a water bath sonicator to cause the lipids to sheet off of the glass. It is believed that the lipids form vesicle structures in the buffer.
M21 cells were plated in a 12-well plate and allowed to grow over night. The next morning, the growth medium was removed and replaced with 0.5 mL of buffer (control) or lipid suspension. Cells were incubated in contact with lipids for 1 hour at 37° C. to allow for lipid insertion. The lipid suspension was then aspirated and cells were striped from the plate with 1 mM EDTA in PBS pH 7.4. The EDTA/cell suspensions were diluted ˜1:1 with HBSS/BSA buffer, spun down and resuspended at 500,000 cells mL^−1. Cell samples where CD55 and CD59 were to remain functional were diluted 1:1 in HBSS/BSA buffer. Cell samples in which complement inhibitory factors were to be blocked were diluted 1:1 with HBSS/BSA containing 20 μg/mL of each blocking antibody (anti-CD55: clone 143-30 from Southern Biotech, anti-CD59: clone MEM-43 from Novus Biologicals) for a final concentration of 10 μg/mL of each antibody.
Cell suspensions (50 μL) were added to an opaque white 96-well plate in sextuplicate. […] (See plate illustration FIG. 7.) The plate was incubated at 37° C. for two hours to allow for complement activation and cell killing. After 2 hours, the plate was removed from the incubator and allowed to come to room temperature. […] Luminescence was read on a Tecan M1000 plate reader.
Luminescence values were averaged for each set of triplicate wells. Since luminescence correlates to viable cells and the heat killed serum wells provide a measure of non-specific cell death, the fraction of viable cells for each condition is calculated as (avg. luminescencenormal serum)/(avg. luminescenceheat killed serum). […]
FIG. 9 is a graph presenting results in terms of % viable cells for an experiment conducted with M21 cells as noted above which compared treatment of cells with lipid alone serum alone (negative control) (DPoPE), lipid+addition of CD55 and CD59 blocking antibodies, Rha2-lipid 51, Rha2-lipid 51+CD55 and CD59 blocking antibodies, 14.18-IL2 antibody (positive control), and 14.18-IL@antibody+CD55 and CD59 blocking antibodies. […] Cell Titer-Glo® assay (Promega) was used to measure living cells, Viability=(luminescence in wells treated with normal serum)/(luminescence of wells treated with heat inactivated serum).

[3] = tested on: antibodies in human serum; test: Biosensor (SPR) analysis of antibody levels in human serum against immobilized biotinylated antigens; format: binding; details: 10% serum, after 5 minutes of serum exposure, biotinylated antigen on streptavidin chip
Source text: Biosensor analysis was used to evaluate levels of antibodies in human serum. Surface plasmon resonance (SPR) is an information-rich technique requiring only small amounts of material, and surfaces with immobilized compounds can be regenerated and used multiple times. Although this technique is most often associated with determination of kinetic parameters, it is also useful for rank ordering interactions with ligands and antibody characterization, and is compatible with serum. […] The biotinylated antigens were immobilized on streptavidin-coated sensor chips along with a biotinylated control peptide in a reference channel. Serum was collected from healthy volunteer donors under IRB-approved Human Subjects minimal risk protocol M-2005-1282 at the University of Wisconsin-Madison. To limit bulk refractive index changes and keep signal within the instrument's detection range, solutions of 10% serum were flowed across the chip, contacting antigens in this order: […] As a measure of antibody prevalence, corrected response units (RUantigen-RUreference) bound to each flow channel were compared after 5 minutes of serum exposure; more RU indicated greater antibody binding and therefore, a higher titer. […] Antibodies to rhamnose were further assessed with ELISA assays using immobilized rhamnose-BSA.

[4] = tested on: antibodies in human serum; test: Stability of antigen-antibody complexes in serum, SPR loss of response units over 1 hour; format: binding; details: over one hour, corrected RU
Description: FIG. 3 also includes a Table showing percentage loss calculated as (RUT2)/RuT1. All RU were corrected by reference subtraction.
The relative stability of antigen-antibody complexes for DNP, αGal and Rha in serum was assessed by evaluating RU (corrected RU) as a function of time (over 1 hour). FIG. 3 illustrates the decay of RU with time for antigen-antibody complexes for the three antigens. Due to the complexity of these systems, exact kinetic parameters could not be determined; however the loss of response units over time provides an estimate rank ordering of dissociation rates and complex longevity.

complement component C4d = test: Activation of complement, deposition of complement component C4d on treated M21 cells, flow cytometry; format: cell-based; details: 25% normal human serum, 1 hour at 37° C.
Description: FIG. 6 is a graph showing the results of flow cytometry measurements of M21 cells treated with the indicated rhamnose-lipid conjugates, or with an antibody known to activate complement (14.18) exposed to normal human serum and subsequently stained for C4d, a marker of complement activation.
Rhamnose-lipid conjugates 4 (Rha1-DPoPE) and 51 (Rha2-DPoPE) were synthesized as described in Example 1. The ability of these compounds to activate complement was tested by looking for deposition of complement component C4d. M21 cells treated with buffer, rha1-DPoPE, rha2-DPoPE, or a control antibody known to activate complement (14.18) were exposed to 25% normal human serum for 1 hour at 37° C., washed and stained for C4d, and analyzed by flow cytometry. […] The 14.18 antibody employed was the Ch14.18-IL2 fusion protein [Gillies, S D; Lan, Y; Lo, K M; Super, M; Wesolowski, J (1999) “Improving the efficacy of antibody-interleukin 2 fusion proteins by reducing their interaction with Fc receptors.” Cancer Research vol. 59 (9) p. 2159-66.]

M21 cells [5] = test: DNP-lipid insertion into cell membranes, anti-DNP staining, flow cytometry; format: cell-based; details: M21 cells treated with DNP-lipid, stained with anti-DNP
Source text: FIG. 4 is a graph showing the results of flow cytometry measurement of M21 cells treated with or without DNP-lipid and stained with anti-DNP. DNP-lipid 100 (Avanti Polar Lipids, Alabaster, Ala.) was used for the experiment.
As an initial assessment of antigen-lipid insertion into cell membranes, a hapten-lipid conjugate, DNP-lipid (100, a dipalmitoleoyl phosphatidylethanolamine-DNP conjugate) and anti-DNP-antibody were used to determine if (1) lipids would insert into model M21 cell line and (2) if the antigen headgroups of the antigen-lipid conjugates would remain accessible to antibodies. M21 cells treated with the DNP-lipid followed by staining with anti-DNP were analyzed by flow cytometry (FIG. 4).

M21 cells [6] = test: Chromium-51 release assay (CDC / ADCC); format: cell-based
Description: Experiments were performed using the art-recognized Chromium-51 (^51Cr) release assay to assess if Rha2-lipid conjugate 51 was capable of activating cellular responses ADCC.
M21 cells were treated with lipid as described in Example 6. Target cells are labeled with ^51Cr and the release of label is a measure of cell cytolysis. In this case, the cells were contacted with Na^51Cr label overnight which is somewhat longer than is typically employed in the assay.
This confirms results from Example 6 that Rha2-DPoPE was able to mediate CDC. Peripheral blood mononuclear cells (PBMCs) include immune effector cells some of which express CD16, the most important class of which is natural killer cells.

[7] = plus CD55 and CD59 blocking antibodies 10 μg/mL each

Compound: CC(C)CCC[C@@H](C)[C@H]1CC[C@H]2[C@@H]3CC=C4C[C@H](OC(=O)NCCOCCOCCNC(=O)c5cccc(-c6c7ccc(=N)c(S(=O)(=O)O)c-7oc7c(S(=O)(=O)O)c(N)ccc67)c5C(=O)O)CC[C@]4(C)[C@H]3CC[C@]12C [Compound 101]
insertion into cell membranes, copy numbers (fluorophores per cell) (M21 cells [1]): around 3×10^6

Compound: CCCCCC/C=C\CCCCCCCC(=O)OC[C@H](COP(=O)(O)OCCN)OC(=O)CCCCCCC/C=C\CCCCCC [DPoPE, 1,2-dipalmitoleoyl-sn-glycero-3-phosphoethanolamine]
% viability (M21 cells [2]; CD55 and CD59 functional): remain equally viable | % viability (M21 cells [2]; [7]): slight negative impact on cell survival

Compound: rhamnose
antibody prevalence (corrected response units bound, RUantigen-RUreference) [3]: more prevalent than those recognizing αGal in all cases; also recorded: equivalent or better to those recognizing DNP in most cases | loss of binding signal (response units) of antigen-antibody complex over time [4]: affinity advantage over those of both αGal and DNP

loss of binding signal (response units) of antigen-antibody complex over time [4]: signal loss was greater
Compound: OC[C@H]1O[C@H](O[C@H]2[C@@H](O)[C@@H](CO)OC(O)[C@@H]2O)[C@H](O)[C@@H](O)[C@H]1O (stereo partly drawn) [αGal, Gal-α-1,3-Gal]

Compound: O=[N+]([O-])c1ccc(O)c([N+](=O)[O-])c1 [DNP, 2,4-dinitrophenol]
loss of binding signal (response units) of antigen-antibody complex over time [4]: signal loss was greater

Compound: CCCCCC/C=C\CCCCCCCC(=O)OC[C@H](COP(=O)(O)OCCNCCCCO[C@@H]1OC(C)[C@H](O)[C@H](O)C1O)OC(=O)CCCCCCC/C=C\CCCCCC (some centres unmarked) [Compound 4, Rha1-DPoPE]
complement activation (C4d staining) (complement component C4d): activated complement

Compound: CCCCCCCCCCCCCCCC(=O)OC[C@H](COP(=O)(O)OCCNC(=O)CCCCCNc1ccc([N+](=O)[O-])cc1[N+](=O)[O-])OC(=O)CCCCCCCCCCCCCCC.N [DNP-lipid]
anti-DNP staining shift (membrane insertion, antigen head group accessibility) (M21 cells [5]): positive shift

Compound: CCCCCC/C=C\CCCCCCCC(=O)OC[C@H](COP(=O)(O)OCCN(CCCCO[C@@H]1OC(C)[C@H](O)[C@H](O)C1O)CCCCO[C@@H]1OC(C)[C@H](O)[C@H](O)C1O)OC(=O)CCCCCCC/C=C\CCCCCC (some centres unmarked) [Compound 51, Rha2-DPoPE]
complement activation (C4d staining) (complement component C4d): more efficient | % viability (M21 cells [2]; CD55 and CD59 functional): large decrease in viability | % viability (M21 cells [2]; [7]): significantly amplified | 51Cr release (cytotoxicity, CDC) (M21 cells [6]; serum alone, FIG. 10 left bar): Cr-51 was released | 51Cr release (cytotoxicity) (M21 cells [6]; serum with PBMCs added, FIG. 10 right bar): cytotoxicity increased
